Laboratory results reported in PubChem BioAssay AID250 (DTP/NCI, 2004).
Several values for one entry are separate records, joined by “and”; a condition that tells them apart may be missing. Equal entries are not always repeated. Toxic doses and inconclusive results are not listed. The calls were made as follows: active = survival T/C of 150% or more; inactive = T/C below 125% in these data.

Test system: BDF1 mice, L1210 leukemia sc, survival T/C
Experiment: NCI In Vivo Anticancer Drug Screen. Data for tumor model L1210 Leukemia (subcutaneous) in B6D2F1 (BDF1) mice
Conditions: endpoint: median survival time, higher = longer survival
In short: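 Read-out: T/C ratio, i.e. survival or tumor size in treated mice over that in vehicle-treated controls, from mice bearing transplantable tumors.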

Measured: T/C

CO[C@@]12[C@H](COC(N)=O)C3=C(C(=O)C(C)=C(N)C3=O)N1C[C@@H]1N[C@@H]12
inactive: dose: 0.1 mg/kg/injection, schedule: Q01DX Z (sc), vehicle: saline 95 % of control | dose: 0.17 mg/kg/injection, schedule: Q01DX Z (sc), vehicle: saline 100 % of control | dose: 0.28 mg/kg/injection, schedule: Q01DX Z (sc), vehicle: saline 100 % of control | dose: 0.47 mg/kg/injection, schedule: Q01DX Z (sc), vehicle: saline 91 % of control | dose: 0.79 mg/kg/injection, schedule: Q01DX Z (sc), vehicle: saline 100 % of control | dose: 1.0 mg/kg/injection, schedule: Q01DX009 (ip), vehicle: water 110 % of control | dose: 1.0 mg/kg/injection, schedule: Q01DX009 (sc), vehicle: water 101 % of control | dose: 1.08 mg/kg/injection, schedule: Q01DX Z (sc), vehicle: saline 100 % of control | dose: 1.3 mg/kg/injection, schedule: Q01DX Z (sc), vehicle: other 104 % of control | dose: 1.3 mg/kg/injection, schedule: Q01DX Z (sc), vehicle: saline 104 % of control | dose: 1.31 mg/kg/injection, schedule: Q01DX Z (sc), vehicle: saline 95 % of control | dose: 1.8 mg/kg/injection, schedule: Q01DX Z (sc), vehicle: saline 100 % of control | dose: 1.8 mg/kg/injection, schedule: Q02DX Z (sc), vehicle: saline 100 % of control | dose: 2.0 mg/kg/injection, schedule: Q01DX009 (ip), vehicle: water 110 % of control | dose: 2.0 mg/kg/injection, schedule: Q01DX009 (sc), vehicle: water 110 % of control and 118 % of control | dose: 2.16 mg/kg/injection, schedule: Q01DX Z (sc), vehicle: other 100 % of control | dose: 2.16 mg/kg/injection, schedule: Q01DX Z (sc), vehicle: saline 109 % of control | dose: 2.18 mg/kg/injection, schedule: Q01DX Z (sc), vehicle: saline 100 % of control | dose: 3.0 mg/kg/injection, schedule: Q01DX Z (sc), vehicle: saline 109 % of control | dose: 3.0 mg/kg/injection, schedule: Q02DX Z (sc), vehicle: saline 109 % of control | dose: 3.0 mg/kg/injection, schedule: Q## X Z (sc), vehicle: saline 104 % of control | dose: 3.6 mg/kg/injection, schedule: Q01DX Z (sc), vehicle: other 109 % of control | dose: 3.6 mg/kg/injection, schedule: Q01DX Z (sc), vehicle: saline 113 % of control | dose: 4.0 mg/kg/injection, schedule: Q01DX009 (ip), vehicle: water 92 % of control | dose: 4.0 mg/kg/injection, schedule: Q01DX009 (sc), vehicle: water 98 % of control and 121 % of control | dose: 5.0 mg/kg/injection, schedule: Q01DX001 (sc), vehicle: saline 109 % of control | dose: 5.0 mg/kg/injection, schedule: Q02DX Z (sc), vehicle: saline 118 % of control | dose: 5.0 mg/kg/injection, schedule: Q## X Z (sc), vehicle: saline 109 % of control | dose: 6.0 mg/kg/injection, schedule: Q01DX Z (sc), vehicle: other 113 % of control | dose: 6.0 mg/kg/injection, schedule: Q01DX Z (sc), vehicle: saline 118 % of control | dose: 6.06 mg/kg/injection, schedule: Q01DX Z (sc), vehicle: saline 116 % of control | dose: 8.0 mg/kg/injection, schedule: Q01DX009 (sc), vehicle: water 108 % of control | dose: 8.4 mg/kg/injection, schedule: Q01DX001 (sc), vehicle: saline 113 % of control | dose: 8.4 mg/kg/injection, schedule: Q01DX Z (sc), vehicle: saline 118 % of control | dose: 8.4 mg/kg/injection, schedule: Q## X Z (sc), vehicle: saline 122 % of control | dose: 10.0 mg/kg/injection, schedule: Q01DX Z (sc), vehicle: other 109 % of control | dose: 10.0 mg/kg/injection, schedule: Q01DX Z (sc), vehicle: saline 100 % of control | dose: 14.0 mg/kg/injection, schedule: Q01DX Z (sc), vehicle: saline 109 % of control | dose: 14.0 mg/kg/injection, schedule: Q02DX Z (sc), vehicle: saline 118 % of control | dose: 16.0 mg/kg/injection, schedule: Q01DX009 (sc), vehicle: water 97 % of control | dose: 23.0 mg/kg/injection, schedule: Q01DX001 (sc), vehicle: saline 118 % of control | dose: 23.0 mg/kg/injection, schedule: Q01DX Z (sc), vehicle: saline 109 % of control | dose: 23.0 mg/kg/injection, schedule: Q02DX Z (sc), vehicle: saline 118 % of control | dose: 23.0 mg/kg/injection, schedule: Q## X Z (sc), vehicle: saline 118 % of control | dose: 39.0 mg/kg/injection, schedule: Q01DX001 (sc), vehicle: saline 118 % of control | dose: 39.0 mg/kg/injection, schedule: Q02DX Z (sc), vehicle: saline 122 % of control | dose: 39.0 mg/kg/injection, schedule: Q## X Z (sc), vehicle: saline 118 % of control | dose: 65.0 mg/kg/injection, schedule: Q01DX001 (sc), vehicle: saline 109 % of control

C=CC(COC(C)=O)N1CC1 (stereo not drawn)
inactive: dose: 4.7 mg/kg/injection, schedule: Q01DX Z (sc), vehicle: saline 100 % of control | dose: 7.8 mg/kg/injection, schedule: Q01DX Z (sc), vehicle: saline 100 % of control | dose: 13.0 mg/kg/injection, schedule: Q01DX Z (sc), vehicle: saline 100 % of control | dose: 36.0 mg/kg/injection, schedule: Q01DX Z (sc), vehicle: saline 100 % of control | dose: 60.0 mg/kg/injection, schedule: Q01DX Z (sc), vehicle: saline 100 % of control
